Source: patent US5279836A, “Topical use of calcitonin for the preparation of medications in senile idiopathic cataract and a pharmaeutical composition thereof” (Mediator S.R.L., priority 1991, dated 1994)
Positions of bridges follow the written chain, without caps; N, C: chain ends. Non-standard residues stand in square brackets, D forms with d. Residues, ends and D or L forms follow the SMILES beside them. Asu = N[C@@H](CCCCCC(=O)O)C(=O)O

Columns and labels:
[1] = system: corneal epithelium; test: Systemic and local (corneal) tolerance after topical instillation of the collyrium; type: in vivo, rabbit; conditions: rabbits, topical collyrium 5 U.MRC; 2% fluorescein test
Experimental: After the Keratocentesis a new test of the corneal surface integrity was performed with instillation of 2% fluorescein and washing with physiological solution.

[2] = system: sheep lens; conditions: sheep lens in vitro, incubation; cited from earlier work

Compound	systemic phenomena of drug intolerance and local toxic phenomena (corneal epithelium) [1]	calcium levels in the lens [2]
CC(C)C[C@H](NC(=O)[C@H](CCCCN)NC(=O)CNC(=O)[C@H](CC(C)C)NC(=O)[C@@H](NC(=O)[C@@H]1CCCCCC(=O)N[C@@H](CO)C(=O)N[C@@H](CC(N)=O)C(=O)N[C@@H](CC(C)C)C(=O)N[C@@H](CO)C(=O)N[C@@H]([C@@H](C)O)C(=O)N1)C(C)C)C(=O)N[C@@H](CO)C(=O)N[C@@H](CCC(N)=O)C(=O)N[C@@H](CCC(=O)O)C(=O)N[C@@H](CC(C)C)C(=O)N[C@@H](Cc1c[nH]cn1)C(=O)N[C@@H](CCCCN)C(=O)N[C@@H](CC(C)C)C(=O)N[C@@H](CCC(N)=O)C(=O)N[C@H](C(=O)N[C@@H](Cc1ccc(O)cc1)C(=O)N1CCC[C@H]1C(=O)N[C@@H](CCCNC(=N)N)C(=O)N[C@H](C(=O)N[C@@H](CC(=O)O)C(=O)N[C@H](C(=O)NCC(=O)N[C@@H](C)C(=O)NCC(=O)N[C@H](C(=O)N1CCC[C@H]1C(N)=O)[C@@H](C)O)C(C)C)[C@@H](C)O)[C@@H](C)O [elcatonin] (SNLST[Asu]VLGKLSQELHKLQTYPRTDVGAGTP-NH2; lactam N-6)	No animal showed systemic phenomena of the drug intolerance nor local toxic phenomena	–
calcitonin	–	raises the calcium levels proportionally with the incubation times
